Results from patent publication EP0771187B1, “NOVEL COMBINATION PRODUCT COMPRISING AN ANTIFUNGAL AGENT AND CROTAMITON AS AN ANTIFUNGAL ACTIVITY ENHANCER AND DERMATOLOGICAL OR COSMETIC COMPOSITIONS COMPRISING SAME” (Pierre Fabre Dermo-Cosmetique, priority 1994, dated 1996).

Tests used:
Assay type in all cases: cell-based
[1] = test system: Pityrosporium ovale sauvages dont une éco-R; experiment: Fungicidal activity: checkerboard combined with Afnor membrane filtration, 5 min contact (Example 1); details: pH about 8, read-out: Mg : moyenne géométrique du Log 10 de la réduction du nombre de germes; for log reduction at 2 %: product alone at 2 % (m/v); for log reduction at 4 %: product alone at 4 % (m/v)
Method: CMF définissant la concentration minimale de fongicide pour laquelle on obtient une diminution de 4.Log 10 de l'inoculum ensemencé en 5 minutes de contact à 20°C.
Des souches de Malassezia furfur (Pityrosporum ovale) ont été testées pour leur sensibilité vis-à-vis des principes actifs seuls ou bien en association selon l'invention.
Les souches sont issues du Laboratoire de Parasitologie du Centre Hospitalier Régional de Rangueil de TOULOUSE (France) et une souche est éconazole résistante (éco-R). Elles ont été cultivées lors des essais sur milieu Dixon solide.
(§1) La technique utilisée est originale car elle utilise à la fois le principe de la technique de l'échiquer et celui de la norme Afnor par filtration sur membrane relative à la fongicidie avec un temps de contact germe-molécules de 5 minutes.
(§2) C'est une macro-méthode qui a donc été réalisée ici avec validations à chaque essai du témoin solvant des molécules (Tween® 20 %, éthanol 17 % dans l'eau distillée).
Ce solvant inhibe légèrement l'activité de la ciclopiroxolamine, et il faut donc s'attendre à de meilleurs résultats en pratique. Les autres témoins sont celui de la vigueur de la souche et de l'efficacité des produits seuls, soit : - ciclopiroxolamine 4 % - crotamiton 4 %
Le tableau 1 représente les moyennes géométiques de la réduction logarithmique sur deux Pityrosporium ovale sauvages dont une éco-R, le nombre d'essais ainsi que le pourcentage d'efficacité.
La norme Afnor considère qu'il y a fongicidie pour une réduction de 4 Log 10 de l'inoculum après 15 minutes de contact.
Le pH de l'ensemble de ces études se situe autour de 8.

C. albicans ATCC 9021 = experiment: Fungicidal activity: checkerboard combined with Afnor membrane filtration, 5 min contact (Example 2, Table 3); details: Candida albicans, ATCC9021, 5 min, pH 9, read-out: Mg; for log reduction at 2 %: product alone at 2 %
Method: as §1, §2
(§3) L'association de l'octopirox avec le crotamiton a été testé selon la méthodologie de l'exemple 1 sur une souche Pityrosporium ovale éco-R et C. albicans ATCC 9021.
(§4) Le même solvant a été utilisé et validé à chaque essai comme le spécifie la norme Afnor.
Ces Résultats ont été confirmés sur une levure de référence Afnor (C.albicans ATCC 9021). Les résultats sont reportés dans le tableau 3.
(§5) Les essais de l'exemple 2 ont été réalisés avec un pH plus basique = 9.

P. ovale éco-R = experiment: Fungicidal activity: checkerboard combined with Afnor membrane filtration, 5 min contact (Example 2, Table 2); details: Pityrosporium ovale, pH 9, read-out: Mg; for log reduction at 2 %: product alone at 2 %
Method: as §1, §2, §3
Le tableau 2 représente les résultats obtenus sur P. ovale éco-R après cinq minutes de contact pour l'association : • crotamiton 1 % - octopirox 1 % pour lequel nous avons 100 % d'efficacité • alors que les produits seuls à double ou quadruple concentrations sont moins actifs.
as §4, §5

| Structure (SMILES) | log reduction at 2 % [1] | log reduction at 4 % [1] | log reduction at 1 % (C. albicans ATCC 9021; product alone at 1 %) | log reduction at 2 % (C. albicans ATCC 9021) | log reduction at 2 % (P. ovale éco-R) | log reduction at 4 % (C. albicans ATCC 9021; product alone at 4 %) | log reduction at 4 % (P. ovale éco-R; product alone at 4 %) | log reduction at 1 % ([1]; product alone at 1 % (m/v)) |
| --- | --- | --- | --- | --- | --- | --- | --- | --- |
| Cc1cc(C2CCCCC2)n(O)c(=O)c1 [CPO, ciclopirox olamine] | 0.43 | 2.05 | – | – | – | – | – | – |
| Cc1cc(CC(C)CC(C)(C)C)n(O)c(=O)c1 (stereo not drawn) [Octo, octopirox] | – | – | 0.36 | 3.18 | 1.85 | – | – | – |
| CC=CC(=O)N(CC)c1ccccc1C [Crota, N-éthyl-N-O-tolylcrotonamide] | 0.77 | 3.77 | – | 2.43 | 1.59 | 4.95 | 3.26 | 0.03 |
